# Reference: PMC8347176, “Novel High Affinity Sigma-1 Receptor Ligands from Minimal Ensemble Docking-Based Virtual Screening” (International Journal of Molecular Sciences, 2021)
# Where a name gives a salt, the structure may show the parent alone.
# Biological target: T1, sigma-1 receptor (S1R) (Cavia porcellus, UniProt Q60492)
# T1 construct: Guinea pig liver tissue preparation abundantly contains sigma-1 receptor as compared to other tissues; from tissue; host or cells: guinea pig liver membrane homogenate
# Assay: Sigma-1 receptor competitive radioligand binding assay with [3H](+)-pentazocine in guinea pig liver membranes
# Settings: read-out: Measured Ki
# Method: Male Wistar-Harlan rats (n = 10, 225–250 g) and guinea pigs (n = 10, 350–400 g) were handled according to the European Communities Council Directive (2010/63/EU) and to the Regulations on Animal Protection (40/2013. (II. 14.) Korm. r.) of Hungary. The researchers did the best effort to minimize the number of animals and their suffering. Preparation of guinea pig and rat liver homogenates was performed according to a previous method with a slight modification. Euthanized male guinea pig and rats were killed by decapitation, and their livers were removed rapidly. Minced fresh livers were homogenized in ice-cold homogenization buffer (10 mM NaH2PO4 pH 7.4, 0.32 M sucrose, 1 mM MgSO4, 10 μg/mL leupeptin, 1 μg/mL pepstatin A, 5 μg/mL soybean trypsin inhibitor, 0.5 mM EGTA, 1 mM AEBSF) using a Braun Teflon-glass homogenizer at the highest rpm for 30 s. The homogenate was centrifuged at 17,000× g for 10 min (4 °C). Supernatant was recentrifuged at 100,000× g for 60 min at 4 °C. The resulting pellet was resuspended in 10 volumes homogenization buffer, homogenized by a glass homogenizer and stored in aliquots at −80 °C. The protein content of the samples was measured by the Bradford method and samples were diluted in assay buffer to obtain the appropriate amount for the assay.
# Binding assays for the sigma-1 receptor were performed at 37 °C for 90 min in a 50 mM Tris–HCl binding buffer (pH 8.0) in plastic tubes in a total assay volume of 1 mL that contained 0.5 mg/mL of a membrane protein. […] The incubation was terminated by diluting the samples with an ice-cold wash buffer (50 mM of Tris–HCl, pH 8.0), followed by repeated washing and rapid filtration through Whatman GF/B glass fiber filters (Whatman Ltd., Maidstone, UK) presoaked with 0.1% polyethyleneimine. Filtration was performed with a 24-well Brandel Cell Harvester (Gaithersburg, MD, USA). Filters were air-dried and immersed into Ultima Gold MV scintillation cocktail, and then radioactivity was measured with a TRI-CARB 2100TR liquid scintillation analyzer (Packard, Perkin Elmer, Waltham, MA, USA).
# (§1) The results of the competition binding studies are reported as means ± S.E.M. of at least three independent experiments each performed in duplicate. In competition binding studies, the inhibitory constants (Ki) were calculated from the inflection points of the displacement curves using nonlinear least-square curve fitting and the Cheng–Prusoff equation, Ki = EC50/(1 + [ligand]/Kd). All data and curves were analyzed by GraphPad Prism 5.0 (San Diego, CA, USA).
# T1 sequence (Q60492 whole entry): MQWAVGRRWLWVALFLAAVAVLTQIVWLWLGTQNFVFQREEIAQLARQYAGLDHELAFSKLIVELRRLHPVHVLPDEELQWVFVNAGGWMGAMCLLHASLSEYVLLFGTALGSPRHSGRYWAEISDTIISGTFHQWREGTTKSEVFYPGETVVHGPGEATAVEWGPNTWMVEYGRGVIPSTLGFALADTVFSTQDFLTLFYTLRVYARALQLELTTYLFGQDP
row,SMILES,Ki [nM]
1,"CC1(C)C2CC(O)C(O)(CNCc3ccccc3)CC21 [L7, (1S,3R,4R,6R)-3-(benzylamino)methyl)-7,7-dimethylbicyclo[4.1.0]heptane-3,4-diol]",1380
2,"NC(CC(=O)NCc1cccc(C(F)(F)F)c1F)c1ccccc1 (stereo not shown) [L2, 3-Amino-N-(2-fluoro-3-(trifluoromethyl)benzyl]-3-phenylpropanamide hydrochloride]",91
3,"Cn1c2c(c3ccccc31)CCNC2CNC(=O)OCc1ccccc1 (stereo not shown) [L6, N-Benzyloxycarbonyl-(9-methyl-2,3,4,9-tetrahydro-1H-pyrido[3,4-b]indol-1-yl)methanamine]",1040
4,"O=C(NCC1NCCc2c1[nH]c1ccccc21)OCc1ccccc1 (stereo not shown) [L9, N-Benzyloxycarbonyl-(2,3,4,9-tetrahydro-1H-pyrido[3,4-b]indol-1-yl)methanamine]",1720
5,"CCOc1cc2c(cc1OCC)[C@H]1CCN[C@@H](c3ccc(N(C)C)cc3)N1CC2 (relative stereo) [L10, (4R*,11bR*)-9,10-Diethoxy-4-[4-(dimethylamino)phenyl]-1,3,4,6,7,11b-hexahydro-2H-pyrimido[6,1-a]isoquinoline]",2150
6,"Cl.NC(CC(=O)NCc1cc(F)cc(C(F)(F)F)c1)c1ccccc1 (stereo not shown) [L4, 3-Amino-N-(3-fluoro-5-(trifluoromethyl)benzyl]-3-phenylpropanamide hydrochloride]",420
7,"COc1cc2c(cc1OC)C(CCNCc1ccccc1)NCC2 (stereo not shown) [L1, N-Benzyl-6,7-dimethoxy-1,2,3,4-tetrahydro-1-isoquinolineethanamine dihydrochloride]",32
8,"CCOc1cc2c(cc1OCC)[C@H]1[C@H](CSc3ccc(Cl)cc3)CN1CC2 (relative stereo) [L12, (1R*,9bR*)-1-{[(4-Chlorophenyl)thio]methyl}-7,8-diethoxy-1,4,5,9b-tetrahydro-2H-azeto[2,1a]-isoquinoline]",3270
9,"NN1C(=O)C2C3C=CC(C3)C2NC12CCN(Cc1ccccc1)CC2 (racemic) [L5, (±)-diendo-3′-amino-1-benzyl-5′,8′-methano-4′a,5′,8′,8′a-tetrahydrospiro[piperidine-4,2′(1′H)-quinazolin]-4′(3′H)-one]",463
10,"COc1ccc(OCC(O)CN2CCc3ccccc3C2)cc1 (stereo not shown) [L3, 1-[(4-Methoxyphenoxy)methyl]-2-(1,2,3,4-tetrahydroisoquinolin-2-yl)ethanol]",110
11,"CC(CN)C(=O)NCc1cccc(C(F)(F)F)c1F (stereo not shown) [L8, 3-Amino-N-(2-fluoro-3-(trifluoromethyl)benzyl]-2-methylpropanamide trifluoroacetate]",1530

# Same assay, conditions: read-out: S1R Ki ± S.E.M.
row,SMILES,Ki [nM]
1,"COCCCC/C(=N\OCCN)c1ccc(C(F)(F)F)cc1 [fluvoxamine, reference compound]",31 ± 3

# Biological target: T2, sigma-2 receptor (S2R) (Rattus norvegicus, UniProt Q5U3Y7)
# T2 construct: from tissue; host or cells: rat (male Wistar-Harlan) liver membrane homogenate
# T2 sequence (Q5U3Y7 1-176): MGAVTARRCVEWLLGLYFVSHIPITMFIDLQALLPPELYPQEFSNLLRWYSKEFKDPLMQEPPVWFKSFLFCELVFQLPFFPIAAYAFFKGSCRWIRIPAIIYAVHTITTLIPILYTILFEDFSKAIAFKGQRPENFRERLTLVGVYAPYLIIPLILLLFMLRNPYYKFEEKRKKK
# Assay: Sigma-2 receptor competitive radioligand binding assay with [3H]DTG in rat liver membranes, S1R masked with 100 nM (+)-pentazocine
# Settings: not given
# Method: Male Wistar-Harlan rats (n = 10, 225–250 g) and guinea pigs (n = 10, 350–400 g) were handled according to the European Communities Council Directive (2010/63/EU) and to the Regulations on Animal Protection (40/2013. (II. 14.) Korm. r.) of Hungary. The researchers did the best effort to minimize the number of animals and their suffering. Preparation of guinea pig and rat liver homogenates was performed according to a previous method with a slight modification. Euthanized male guinea pig and rats were killed by decapitation, and their livers were removed rapidly. […] The protein content of the samples was measured by the Bradford method and samples were diluted in assay buffer to obtain the appropriate amount for the assay.
# as §1
row,SMILES,displacement of [3H]DTG (partial)
1,CC(C)=CCN1CC[C@]2(C)c3cc(O)ccc3C[C@H]1[C@H]2C [(+)-pentazocine],70–80%
2,"COCCCC/C(=N\OCCN)c1ccc(C(F)(F)F)cc1 [fluvoxamine, reference compound]",70–80%

# Tested on: not given
# Assay: not given
# Settings: not given
row,SMILES,melting point [°C]
1,"Cl.NC(CC(=O)NCc1cc(F)cc(C(F)(F)F)c1)c1ccccc1 (stereo not shown) [L4, 3-Amino-N-(3-fluoro-5-(trifluoromethyl)benzyl]-3-phenylpropanamide hydrochloride]",180 to 182

# Tested on: S1R
# Assay: not given
# Set-up: method as in PMID 16463398
# Settings: cited from earlier work
row,SMILES,KiS2R/KiS1R
1,COc1cc(CCN2CCN(CCCc3ccccc3)CC2)ccc1OCCF [fluoroethyl analog of S1R agonist SA4503],14.1
